Data reported in patent US11505553B2, “2-(Het)aryl-substituted fused heterocycle derivatives as pesticides” (Bayer Aktiengesellschaft, priority 2017, dated 2022).
Read-outs that look alike come from different tables or passages of the source.

Tests used:
Type in all cases: in vivo
Myzus persicae [1] = assay: Myzus persicae oral test; settings: 120 h, after 5 days, read-out: efficacy; for pest or weed control at 4 ppm: application rate 4 ppm; for pest or weed control at 0.8 ppm: application rate 0.8 ppm
Method: Solvent: 100 parts by weight of acetone To produce a suitable active ingredient formulation, 1 part by weight of active ingredient is dissolved with the stated parts by weight of solvent and made up to the desired concentration with water. 50 μl of the active ingredient preparation are transferred into microtitre plates and made up to a final volume of 200 μl with 150 μl of IPL41 insect medium (33%+15% sugar). Subsequently, the plates are sealed with parafilm, which a mixed population of green peach aphids (Myzus persicae) within a second microtitre plate is able to puncture and imbibe the solution. After 5 days, the efficacy in % is determined. 100% means that all the aphids have been killed; 0% means that no aphids have been killed.

Myzus persicae [2] = assay: Myzus persicae spray test (MYZUPE), contrastive examples; settings: 120 h, 5 dat, read-out: % efficacy
Method: (§1) Solvent: 78.0 parts by weight of acetone • • 1.5 parts by weight of dimethylformamide Emulsifier: alkylaryl polyglycol ether To produce a suitable active ingredient formulation, 1 part by weight of active ingredient is dissolved with the specified parts by weight of solvent and made up to the desired concentration with water containing an emulsifier concentration of 1000 ppm. To produce further test concentrations, the formulation is diluted with emulsifier-containing water. Discs of chinese cabbage leaves (Brassica pekinensis) infested by all stages of the green peach aphid (Myzus persicae) are sprayed with an active ingredient formulation of the desired concentration. After the desired time, the efficacy in % is determined. 100% means that all aphids have been killed; 0% means that no aphids have been killed.

Myzus persicae [3] = assay: Myzus persicae drench test (MYZUPE D); settings: soil, 240 h, 10 dat, read-out: % efficacy
Method: Solvent: 7 parts by weight of dimethylformamide Emulsifier: 2 parts by weight of alkylaryl polyglycol ether To produce an appropriate active ingredient formulation, 1 part by weight of active ingredient is mixed with the stated amounts of solvent and emulsifier, and the concentrate is diluted with water to the desired concentration, it being necessary to take into account soil volume into which drenching is effected. It should be ensured that a concentration of 40 ppm of emulsifier in the soil is not exceeded. For production of further test concentrations, the mixture is diluted with water. Savoy cabbage plants (Brassica oleracea) in earth pots, infested by all stages of the green peach aphid (Myzus persicae), are drenched with an active ingredient formulation of the desired concentration. After the desired time, the efficacy in % is determined. 100% means that all aphids have been killed; 0% means that no aphids have been killed.

Ctenocephalides felis [4] = assay: Ctenocephalides felis in vitro contact test with adult cat fleas; settings: application rate 5 μg/cm^2 (=500 g/ha), after 48 h, adult cat fleas dead or moribund, read-out: efficacy
Method: For the coating of the test tubes, 9 mg of active ingredient are first dissolved in 1 ml of acetone p.a. and then diluted to the desired concentration with acetone p.a. 250 μl of the solution are distributed homogeneously on the inner walls and the base of a 25 ml glass tube by turning and rocking on an orbital shaker (rocking rotation at 30 rpm for 2 h). With 900 ppm of active ingredient solution and internal surface area 44.7 cm^2, given homogeneous distribution, an area-based dose of 5 μg/cm^2 is achieved. After the solvent has evaporated off, the tubes are populated with 5-10 adult cat fleas (Ctenocephalides felis), sealed with a perforated plastic lid and incubated in a horizontal position at room temperature and ambient humidity. After 48 h, efficacy is determined. To this end, the tubes are stood upright and the fleas are knocked to the base of the tube. Fleas which remain motionless at the base or move in an uncoordinated manner are considered to be dead or moribund. […] 100% efficacy means that all the fleas were dead or moribund. 0% efficacy means that no fleas were harmed.

Myzus persicae [5] = assay: Myzus persicae spray test; settings: foliar, 120 h, Chinese cabbage leaf discs, after 5 days, read-out: efficacy; for pest or weed control at 100 g/ha: application rate 100 g/ha
Method: as §1, with “Solvent: 78 parts by” for “Solvent: 78.0 parts by”, “Discs of Chinese cabbage leaves” for “Discs of chinese cabbage leaves”, “concentration. After 5 days, the efficacy” for “concentration. After the desired time, the efficacy”, “that all the aphids have” for “that all aphids have”

Ctenocephalides felis [6] = assay: Ctenocephalides felis oral test; settings: 48 h, application rate 100 ppm in citrated cattle blood, after 2 days, read-out: efficacy (kill)
Method: Solvent: dimethyl sulfoxide To produce a suitable active ingredient formulation, 10 mg of active ingredient are mixed with 0.5 ml of dimethyl sulfoxide. Dilution with citrated cattle blood gives the desired concentration. About 20 unfed adult cat fleas (Ctenocephalides felis) are placed into a chamber which is closed at the top and bottom with gauze. A metal cylinder whose bottom end is closed with parafilm is placed onto the chamber. The cylinder contains the blood/active ingredient formulation, which can be imbibed by the fleas through the parafilm membrane. After 2 days, the kill in % is determined. 100% means that all of the fleas have been killed; 0% means that none of the fleas have been killed.

Nilaparvata lugens [7] = assay: Nilaparvata lugens spray test (NILALU); settings: 96 h, 4 dat, read-out: % efficacy
Method: Solvent: 52.5 parts by weight of acetone • 7 parts by weight of dimethylformamide
Emulsifier: alkylaryl polyglycol ether
To produce an appropriate active ingredient formulation, 1 part by weight of active ingredient is dissolved with the stated parts by weight of solvent and made up with water containing an emulsifier concentration of 1000 ppm until the desired concentration is attained. For production of further test concentrations, the mixture is diluted with emulsifier-containing water. If addition of ammonium salts or/and penetrants is required, these are each added to the preparation solution in a concentration of 1000 ppm.
Rice plants (Oryza sativa) are sprayed with an active ingredient formulation of the desired concentration and then populated with larvae of the rice cicada (Nilaparvata lugens).
After the desired time, the efficacy in % is determined. 100% means that all rice cicadas have been killed; 0% means that no rice cicadas have been killed.

Nilaparvata lugens [8] = assay: Nilaparvata lugens test (NILALU S); settings: read-out: % efficacy
Method: Solvent: 14 parts by weight of dimethylformamide Emulsifier: 2 parts by weight of alkylaryl polyglycol ether To produce an appropriate active ingredient formulation, 1 part by weight of active ingredient is dissolved with the stated parts by weight of solvent and emulsifier and made up with water until the desired concentration is attained. For production of further test concentrations, the mixture is diluted with water. If addition of ammonium salts or/and penetrants (rapeseed oil methyl ester) is required, these are each pipetted into the finished preparation solution in a concentration of 1000 ppm after the dilution. Rice plants (Oryza sativa, var. Balilla) are treated by spraying with the active ingredient formulation in the desired concentration and then populated with L3 larvae of the brown planthopper (Nilaparvata lugens). After the desired time, the kill in % is determined. 100% means that all planthoppers have been killed and 0%, means that no planthoppers have been killed.

Myzus persicae [9] = assay: Myzus persicae spray test (MYZUPE S), bell pepper plants; settings: 144 h, 6 dat, read-out: % efficacy
Method: Solvent: 14 parts by weight of dimethylformamide Emulsifier: alkylaryl polyglycol ether To produce an appropriate active ingredient formulation, 1 part by weight of active ingredient is dissolved with the stated parts by weight of solvent and made up with water containing an emulsifier concentration of 1000 ppm until the desired concentration is attained. For production of further test concentrations, the mixture is diluted with emulsifier-containing water. If addition of ammonium salts or/and penetrants is required, these are each added to the preparation solution in a concentration of 1000 ppm. Bell pepper plants (Capsicum annuum) severely infested by the green peach aphid (Myzus persicae) are treated by spraying with the active ingredient formulation in the desired concentration. After the desired time, the kill in % is determined. 100% means that all animals have been killed; 0% means that no animals have been killed.

Phaedon cochleariae = Phaedon cochleariae spray test (PHAECO), contrastive examples; settings: 168 h, 100 g/ha, 7 dat, read-out: % efficacy
Method: Solvent: 78.0 parts by weight of acetone • • 1.5 parts by weight of dimethylformamide Emulsifier: alkylaryl polyglycol ether To produce an appropriate active ingredient formulation, 1 part by weight of active ingredient is dissolved with the stated parts by weight of solvent and made up with water containing an emulsifier concentration of 1000 ppm until the desired concentration is attained. For production of further test concentrations, the mixture is diluted with emulsifier-containing water. Discs of chinese cabbage leaves (Brassica pekinensis) are sprayed with an active ingredient formulation of the desired concentration and, after drying, populated with larvae of the mustard beetle (Phaedon cochleariae). After the desired time, the efficacy in % is determined. 100% means that all beetle larvae have been killed; 0% means that no beetle larvae have been killed.

Structure (SMILES) | pest or weed control at 4 ppm (Myzus persicae [1]) [%] | Emax at 4 g/ha (Myzus persicae [2]) [%] | Emax at 0.8 ppm (Myzus persicae [3]) [%] | further results
CCS(=O)(=O)c1ccc(N(C)C(=O)N(C)C)nc1-c1nc2cc(C(F)(F)C(F)(F)F)nnc2n1C [Example I-13] | 100 | 90 | 95 | –
CCS(=O)(=O)c1ccc(NC(=O)NC)nc1-c1nc2cc(C(F)(F)C(F)(F)F)nnc2n1C [Example I-7] | – | 100 | – | –
CNC(=O)Nc1ccc(S(C)(=O)=O)c(-c2nc3cc(C(F)(F)F)nnc3n2C)n1 [Example I-5] | 100 | – | – | pest or weed control at 0.8 ppm (Myzus persicae [1]): 100%; pest or weed control at 5 µg/cm2, 500 g/ha (Ctenocephalides felis [4]): 100%; pest or weed control at 100 g/ha (Myzus persicae [5]): 90%; pest or weed control at 100 ppm (Ctenocephalides felis [6]): 100%
CCS(=O)(=O)c1ccc(N(C)C(=O)NC)nc1-c1nc2cc(C(F)(F)C(F)(F)F)nnc2n1C [Example I-8] | 100 | – | 99 | Emax at 4 g/ha (Nilaparvata lugens [7]): 50%
CNC(=O)Nc1ccc(S(C)(=O)=O)c(-c2nc3cc(C(F)(F)C(F)(F)F)nnc3n2C)n1 [Example I-10] | 100 | – | – | Emax at 0.8 ppm (Nilaparvata lugens [8]; 168 h, 7 dat): 95%; Emax at 0.8 ppm (Nilaparvata lugens [8]; 336 h, 14 dat): 80%
CCS(=O)(=O)c1ccc(NC(=O)N(C)C)nc1-c1nc2cc(C(F)(F)C(F)(F)F)nnc2n1C [Example I-9] | 100 | – | 98 | –
CCNC(=O)Nc1ccc(S(=O)(=O)CC)c(-c2nc3cc(C(F)(F)F)nnc3n2C)n1 [Prior art according to WO2017/025419, reference compound] | – | 0 | – | Emax at 4 g/ha (Nilaparvata lugens [7]): 0%; Emax at 0.8 ppm (Myzus persicae [9]): 0%; Emax at 100 g/ha (Phaedon cochleariae): 50%
CN(C)C(=O)Nc1ccc(S(C)(=O)=O)c(-c2nc3cc(C(F)(F)F)nnc3n2C)n1 [Example I-4] | 100 | – | – | pest or weed control at 100 ppm (Ctenocephalides felis [6]): 100%
CCS(=O)(=O)c1ccc(N(C)C(=O)N(C)C)nc1-c1nc2cc(C(F)(F)F)nnc2n1C [Example I-12] | 100 | 90 | – | pest or weed control at 0.8 ppm (Myzus persicae [1]): 100%; pest or weed control at 20 g/ha (Myzus persicae [5]; application rate 20 g/ha): 90%; pest or weed control at 100 g/ha (Myzus persicae [5]): 100%; Emax at 0.8 ppm (Myzus persicae [9]): 90%
CN(C)C(=O)Nc1ccc(S(C)(=O)=O)c(-c2nc3cc(C(F)(F)C(F)(F)F)nnc3n2C)n1 [Example I-11] | 100 | – | 95 | Emax at 0.8 ppm (Nilaparvata lugens [8]; 336 h, 14 dat): 85%
